According to PubChem BioAssay AID330 (DTP/NCI, 2004):
“And” between values parts separate entries of the source, which are not always exact repeats. Identical values can stand only once. Toxic doses and inconclusive results are not listed.

System: P388 leukemia ip, CD2F1 mice, survival T/C
Assay: NCI In Vivo Anticancer Drug Screen. Data for tumor model P388 Leukemia (intraperitoneal) in CD2F1 (CDF1) mice
Conditions: endpoint: median survival time, higher = longer survival
Summary of the method: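 Mice carrying the transplanted tumor received test compound or vehicle. Survival was recorded in each group, and the value is the treated-group measurement divided by that of the vehicle-treated control group.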

[1] = dose: 60.0 mg/kg/injection, schedule: Q01DX005 (ip), vehicle: saline with Tween-80
[2] = dose: 120.0 mg/kg/injection, schedule: Q01DX005 (ip), vehicle: saline with Tween-80
[3] = dose: 240.0 mg/kg/injection, schedule: Q01DX005 (ip), vehicle: saline with Tween-80

CC(=O)OCC1OC(n2cc(F)c(=O)[nH]c2=O)C(OC(C)=O)C1OC(C)=O (stereo not drawn)
T/C (dose: 1.56 mg/kg/injection, schedule: Q01DX009 (ip), vehicle: Klucel (hydroxypropylcellulose) (HPC)): 110 % of control | T/C (dose: 6.25 mg/kg/injection, schedule: Q01DX009 (ip), vehicle: Klucel (hydroxypropylcellulose) (HPC)): 151 % of control | T/C (dose: 12.5 mg/kg/injection, schedule: Q01DX009 (ip), vehicle: Klucel (hydroxypropylcellulose) (HPC)): 108 % of control | T/C (dose: 25.0 mg/kg/injection, schedule: Q01DX009 (ip), vehicle: Klucel (hydroxypropylcellulose) (HPC)): 89 % of control | T/C (dose: 50.0 mg/kg/injection, schedule: Q01DX009 (ip), vehicle: Klucel (hydroxypropylcellulose) (HPC)): 89 % of control | T/C (dose: 100.0 mg/kg/injection, schedule: Q01DX009 (ip), vehicle: Klucel (hydroxypropylcellulose) (HPC)): 88 % of control

CC(=O)Oc1cc2c(cc1OC(C)=O)C(=O)c1cc3c(cc1C2=O)OCO3
T/C [1]: 107 % of control | T/C [2]: 120 % of control | T/C [3]: 108 % of control

N#Cc1ccccc1C#N
T/C (dose: 1.56 mg/kg/injection, schedule: Q04DX003 (ip), vehicle: saline): 98 % of control | T/C (dose: 3.13 mg/kg/injection, schedule: Q04DX003 (ip), vehicle: saline): 98 % of control | T/C (dose: 6.25 mg/kg/injection, schedule: Q04DX003 (ip), vehicle: saline): 100 % of control | T/C (dose: 12.5 mg/kg/injection, schedule: Q04DX003 (ip), vehicle: saline with Tween-80): 104 % of control | T/C (dose: 12.5 mg/kg/injection, schedule: Q04DX003 (ip), vehicle: saline): 100 % of control | T/C (dose: 25.0 mg/kg/injection, schedule: Q04DX003 (ip), vehicle: saline with Tween-80): 95 % of control

Cc1ncc(C(N)=O)c(N)n1
T/C (dose: 50.0 mg/kg/injection, schedule: Q01DX009 (ip), vehicle: saline with Tween-80): 103 % of control | T/C (dose: 100.0 mg/kg/injection, schedule: Q01DX009 (ip), vehicle: saline with Tween-80): 104 % of control | T/C (dose: 200.0 mg/kg/injection, schedule: Q01DX009 (ip), vehicle: saline with Tween-80): 104 % of control

O=C(O)C(=O)O.OO.OO.[O]=[V]
T/C (dose: 0.94 mg/kg/injection, schedule: Q01DX005 (ip), vehicle: saline): 92 % of control | T/C (dose: 3.75 mg/kg/injection, schedule: Q01DX005 (ip), vehicle: saline): 110 % of control

O=C(CSC1CCc2ccccc21)N/N=C/c1ccccc1O (stereo not drawn)
T/C (dose: 50.0 mg/kg/injection, schedule: Q01DX005 (ip), vehicle: Klucel (hydroxypropylcellulose) (HPC)): 96 % of control | T/C (dose: 100.0 mg/kg/injection, schedule: Q01DX005 (ip), vehicle: Klucel (hydroxypropylcellulose) (HPC)): 98 % of control | T/C (dose: 200.0 mg/kg/injection, schedule: Q01DX005 (ip), vehicle: Klucel (hydroxypropylcellulose) (HPC)): 89 % of control

CNC(=O)n1cccc(OC)c1=O
T/C (dose: 12.5 mg/kg/injection, schedule: Q01DX009 (ip), vehicle: saline): 102 % of control and 107 % of control | T/C (dose: 25.0 mg/kg/injection, schedule: Q01DX009 (ip), vehicle: saline): 100 % of control and 111 % of control

Oc1cc(O)cc(/C=C/c2ccc(O)c(O)c2)c1
T/C (dose: 3.12 mg/kg/injection, schedule: Q01DX009 (ip), vehicle: DMSO): 109 % of control | T/C (dose: 6.25 mg/kg/injection, schedule: Q01DX009 (ip), vehicle: DMSO): 114 % of control | T/C (dose: 12.5 mg/kg/injection, schedule: Q01DX009 (ip), vehicle: DMSO): 118 % of control | T/C (dose: 25.0 mg/kg/injection, schedule: Q01DX009 (ip), vehicle: DMSO): 123 % of control

CCOc1c(N=Nc2ccc([N+](=O)[O-])cc2)c(C)nn1C(=S)S
T/C (dose: 60.0 mg/kg/injection, schedule: Q01DX005 (ip), vehicle: Klucel (hydroxypropylcellulose) (HPC)): 100 % of control | T/C (dose: 120.0 mg/kg/injection, schedule: Q01DX005 (ip), vehicle: Klucel (hydroxypropylcellulose) (HPC)): 95 % of control | T/C (dose: 240.0 mg/kg/injection, schedule: Q01DX005 (ip), vehicle: Klucel (hydroxypropylcellulose) (HPC)): 100 % of control

COC(=O)[C@@]12OC[C@]34[C@H]([C@@H](O)[C@@H]1O)[C@@]1(C)CC(=O)C(O)=C(C)[C@@H]1C[C@H]3OC(=O)[C@H](OC(=O)/C=C(\C)C(C)C)[C@@H]24
T/C (dose: 0.03 mg/kg/injection, schedule: Q01DX009 (ip), vehicle: saline + alcohol): 108 % of control | T/C (dose: 0.06 mg/kg/injection, schedule: Q01DX009 (sc), vehicle: saline + alcohol): 107 % of control | T/C (dose: 0.06 mg/kg/injection, schedule: Q03HX024 (ip), vehicle: saline + alcohol): 152 % of control | T/C (dose: 0.13 mg/kg/injection, schedule: Q01DX009 (ip), vehicle: saline with Tween-80): 160 % of control | T/C (dose: 0.13 mg/kg/injection, schedule: Q01DX009 (sc), vehicle: saline + alcohol): 108 % of control | T/C (dose: 0.13 mg/kg/injection, schedule: Q03HX024 (ip), vehicle: saline + alcohol): 151 % of control | T/C (dose: 0.25 mg/kg/injection, schedule: Q01DX009 (ip), vehicle: distilled water + Tween-80): 155 % of control and 177 % of control | T/C (dose: 0.25 mg/kg/injection, schedule: Q01DX009 (ip), vehicle: saline with Tween-80): 156 % of control | T/C (dose: 0.25 mg/kg/injection, schedule: Q01DX009 (sc), vehicle: saline + alcohol): 106 % of control | T/C (dose: 0.25 mg/kg/injection, schedule: Q03HX024 (ip), vehicle: saline + alcohol): 164 % of control | T/C (dose: 0.38 mg/kg/injection, schedule: Q01DX009 (ip), vehicle: saline + Tween-80 + alcohol): 155 % of control | T/C (dose: 0.5 mg/kg/injection, schedule: Q01DX009 (ip), vehicle: distilled water + Tween-80): 155 % of control and 185 % of control | T/C (dose: 0.5 mg/kg/injection, schedule: Q01DX009 (ip), vehicle: saline with Tween-80): 169 % of control | T/C (dose: 0.5 mg/kg/injection, schedule: Q01DX009 (oral), vehicle: saline + alcohol): 102 % of control | T/C (dose: 0.5 mg/kg/injection, schedule: Q01DX009 (sc), vehicle: saline + alcohol): 110 % of control | T/C (dose: 0.5 mg/kg/injection, schedule: Q08DX002 (ip), vehicle: saline + alcohol): 101 % of control | T/C (dose: 1.0 mg/kg/injection, schedule: Q01DX001 (ip), vehicle: saline + alcohol): 111 % of control | T/C (dose: 1.0 mg/kg/injection, schedule: Q01DX001 (sc), vehicle: saline + alcohol): 109 % of control | T/C (dose: 1.0 mg/kg/injection, schedule: Q01DX005 (ip), vehicle: water): 155 % of control | T/C (dose: 1.0 mg/kg/injection, schedule: Q01DX009 (ip), vehicle: distilled water + Tween-80): 158 % of control and 166 % of control | T/C (dose: 1.0 mg/kg/injection, schedule: Q01DX009 (ip), vehicle: saline with Tween-80): 185 % of control | T/C (dose: 1.0 mg/kg/injection, schedule: Q01DX009 (oral), vehicle: saline + alcohol): 104 % of control | T/C (dose: 1.0 mg/kg/injection, schedule: Q08DX002 (ip), vehicle: saline + alcohol): 100 % of control | T/C (dose: 2.0 mg/kg/injection, schedule: Q01DX001 (ip), vehicle: saline + alcohol): 116 % of control | T/C (dose: 2.0 mg/kg/injection, schedule: Q01DX001 (sc), vehicle: saline + alcohol): 115 % of control | T/C (dose: 2.0 mg/kg/injection, schedule: Q01DX009 (ip), vehicle: saline with Tween-80): 209 % of control | T/C (dose: 2.0 mg/kg/injection, schedule: Q01DX009 (oral), vehicle: saline + alcohol): 104 % of control | T/C (dose: 2.0 mg/kg/injection, schedule: Q08DX002 (ip), vehicle: saline + alcohol): 102 % of control | T/C (dose: 4.0 mg/kg/injection, schedule: Q01DX001 (ip), vehicle: saline + alcohol): 120 % of control | T/C (dose: 4.0 mg/kg/injection, schedule: Q01DX001 (oral), vehicle: saline + alcohol): 106 % of control | T/C (dose: 125.0 micrograms/kg/injection, schedule: Q01DX009 (ip), vehicle: saline + alcohol): 124 % of control | T/C (dose: 250.0 micrograms/kg/injection, schedule: Q01DX009 (ip), vehicle: saline + alcohol): 155 % of control | T/C (dose: 500.0 micrograms/kg/injection, schedule: Q01DX009 (ip), vehicle: saline + alcohol): 171 % of control | T/C (dose: 1000.0 micrograms/kg/injection, schedule: Q01DX009 (ip), vehicle: saline + alcohol): 160 % of control and 197 % of control | T/C (dose: 2000.0 micrograms/kg/injection, schedule: Q01DX009 (ip), vehicle: saline + alcohol): 152 % of control

CC(C)CC(NC(c1ccccc1)P(=O)(O)O)C(=O)O (stereo not drawn)
T/C [1]: 100 % of control | T/C [2]: 96 % of control | T/C [3]: 91 % of control

COc1ccc(/C(=N\O)c2nccc3cc(OC)c(OC)cc23)cc1OC
T/C (dose: 15.0 mg/kg/injection, schedule: Q01DX005 (ip), vehicle: saline with Tween-80): 116 % of control | T/C (dose: 30.0 mg/kg/injection, schedule: Q01DX005 (ip), vehicle: saline with Tween-80): 105 % of control | T/C [1]: 99 % of control and 92 % of control

C=C1CCN(c2ccc(OCC)cc2)C1=O
T/C (dose: 4.0 mg/kg/injection, schedule: Q01DX009 (ip), vehicle: saline + alcohol): 102 % of control and 113 % of control and 94 % of control | T/C (dose: 8.0 mg/kg/injection, schedule: Q01DX009 (ip), vehicle: saline + alcohol): 101 % of control and 108 % of control and 91 % of control | T/C (dose: 16.0 mg/kg/injection, schedule: Q01DX009 (ip), vehicle: saline + alcohol): 100 % of control and 91 % of control | T/C (dose: 32.0 mg/kg/injection, schedule: Q01DX009 (ip), vehicle: saline + alcohol): 106 % of control and 111 % of control and 94 % of control | T/C (dose: 64.0 mg/kg/injection, schedule: Q01DX009 (ip), vehicle: saline + alcohol): 100 % of control and 108 % of control and 95 % of control
